In brackets after ≈: the same amount, converted by molar mass.
Legend:
[1] = tested on: Staphylococcus aureus; assay: Antimicrobial activity against Staphylococcus aureus ATCC 25293 by serial dilution method; format: functional
[2] = tested on: Artemia; assay: Toxicity against brine shrimp; format: organism-based; details: in vivo
[3] = tested on: Agrobacterium tumefaciens; assay: Antitumor activity assessed as inhibition of Agrobacterium tumefaciens B6-induced tumor formation after 12 days by potato disk assay; format: functional

**Q.** For `CCNC1=CC(=O)C(C[C@]2(C)[C@@H](C)CC[C@]3(C)C(C)=CCC[C@@H]23)=CC1=O`, which MIC [1] is on record?
**A.** > 100 µg/mL

**Q.** And the LC50 [2]?
**A.** 0.27 ppm

**Q.** What about the “inhibition (INH)” value [3] of the same compound?
**A.** 38%

**Q.** With `CC1=CCC[C@H]2[C@](C)(CC3=CC(=O)C=CC3=O)[C@@H](C)CC[C@]12C` [AVARONE] as the compound, how does the MIC [1] read?
**A.** 1.56 µg/mL (≈ 4.99 µM)

**Q.** And the LC50 [2]?
**A.** 0.14 ppm

**Q.** And the “inhibition (INH)” value [3]?
**A.** 63%

**Q.** Which MIC [1] does the source give for `CCNC1=CC(=O)C=C(C[C@]2(C)[C@@H](C)CC[C@]3(C)C(C)=CCC[C@@H]23)C1=O` here?
**A.** > 100 µg/mL

**Q.** What about the LC50 [2] of the same compound?
**A.** 0.81 ppm

**Q.** What about the “inhibition (INH)” value [3] of the same compound?
**A.** 54%

**Q.** For `CC1=CCC[C@H]2[C@](C)(Cc3cc(=O)c4[nH]c5ncnc6ncn(c=4c3=O)c65)[C@@H](C)CC[C@]12C`, which MIC [1] is on record?
**A.** 12.5 µg/mL (≈ 28.2 µM)

**Q.** And the LC50 [2]?
**A.** 70.2 ppm

**Q.** What about the “inhibition (INH)” value [3] of the same compound?
**A.** 27%

**Q.** `CC1=CCC[C@H]2[C@](C)(CC3=CC(=O)C(N[C@@H]4[C@@H](O)[C@H](O)[C@@H](CO)O[C@H]4O)=CC3=O)[C@@H](C)CC[C@]12C` was tested. Which MIC [1] did it give?
**A.** 6.25 µg/mL (≈ 12.8 µM)

**Q.** What about the LC50 [2] of the same compound?
**A.** 11.5 ppm

**Q.** And the “inhibition (INH)” value [3]?
**A.** 38%

**Q.** `CNC1=CC(=O)C(C[C@]2(C)[C@@H](C)CC[C@]3(C)C(C)=CCC[C@@H]23)=CC1=O` was tested. Which MIC [1] did it give?
**A.** > 100 µg/mL

**Q.** And the LC50 [2]?
**A.** 0.34 ppm

**Q.** And the “inhibition (INH)” value [3]?
**A.** 57%

**Q.** What does the source list for `CC1=CCC[C@H]2[C@](C)(CC3=CC(=O)C=C(N)C3=O)[C@@H](C)CC[C@]12C`?
**A.** MIC [1]: 50 µg/mL (≈ 153 µM); LC50 [2]: 0.24 ppm; inhibition (INH) [3]: 53%

**Q.** For `CC1=CCC[C@H]2[C@](C)(CC3=CC(=O)C(N)=CC3=O)[C@@H](C)CC[C@]12C`, which MIC [1] is on record?
**A.** 50 µg/mL (≈ 153 µM)

**Q.** And the LC50 [2]?
**A.** 0.23 ppm

**Q.** What about the “inhibition (INH)” value [3] of the same compound?
**A.** 55%

**Q.** `CC1=CCC[C@H]2[C@](C)(CC3=CC(=O)C(N[C@@H](C)C(=O)O)=CC3=O)[C@@H](C)CC[C@]12C` was tested. Which MIC [1] did it give?
**A.** 6.25 µg/mL (≈ 15.6 µM)

**Q.** And the LC50 [2]?
**A.** 2 ppm

**Q.** And the “inhibition (INH)” value [3]?
**A.** 38%

**Q.** With `CC1(C)S[C@@H]2[C@H](NC(=O)Cc3ccccc3)C(=O)N2[C@H]1C(=O)[O-].[Na+]` [PENICILLIN G SODIUM] as the compound, how does the MIC [1] read?
**A.** 0.04 µg/mL

Reference: ChEMBL document CHEMBL1158906, “Biological Activities of Avarol Derivatives, 1. Amino Derivatives” (J Nat Prod, 1990)
